Results from patent US20070112025A1, “Use of kynurenine-3-hydroxylase inhibitors for the preparation of medicaments for the treatment of l-dopa induced movement disorders, dyskinesias, drug addiction, pain and cataract” (priority 2003, published 2007).

Key:
glutamate release = settings: KYNA 30-100 nM; without modifying ionotropic or metabotropic GLU receptor function; cited from earlier work
6-OHDA lesioned rats = assay: Rotational response to chronic L-DOPA in 6-OHDA lesioned rats (wearing-off model); format: in vivo, rat
Method: In 6-OHDA lesioned rats, a commonly used model of PD, motor response to L-DOPA decreases after chronic treatment. This effect mimics the “wearing-off” phenomenon observed in parkinsonian patients under chronic treatment with L-DOPA (Boldry et al., Brain Res 1995 Sep. 18; 692: 259-64).
In this rat model we evaluated the effect of Ro-618048 (40 mg/kg; ip) and of 2-(3,4-Dichloro-benzoyl)-cyclopropanecarboxylic acid (UPF-648, 50 mg/kg; ip), on the rotational response to chronic L-DOPA (28 days treatment, […]; ip) in comparison to MK-801 (0.1 mg/kg; ip). […]
To measure rotational behavior, rats were placed in circular cages and tethered to an automated rotometer. The number of complete turns performed in each 5-min period was recorded by a computer. […]
Rats were injected intraperitoneally twice a day at 8:00 and 16:00 for 28 consecutive days with either a combination of L-DOPA methylester (50 mg/kg) and the peripheral decarboxylase inhibitor benserazide (12.5 mg/kg) or saline. […] The duration of the response was measured by the time between the first 5 min interval when the rate of turning attained half its eventual average value and the first interval when the rate again declined to half its average values.
Data were analyzed by analysis of variance followed by Duncan's new multiple range test for post-hoc comparisons.

MTPP treated monkeys = settings: NMDA antagonist in MTPP treated monkeys; cited from earlier work
Male Wistar rats = assay: Cocaine-induced behavioral sensitization (locomotor activity); format: in vivo, rat
Method: We evaluated the effect of Ro-618048 (40 mg/kg; ip) and of 2-(3,4-Dichloro-benzoyl)-cyclopropanecarboxylic acid (UPF-648, 50 mg/kg; ip) in a model of cocaine-induced behavioral sensitization in rat.
Male Wistar rats (Charles River, Kingston, N.Y.) weighing 200-250 g upon arrival were used. Locomotor activity was measured in sixteen identical metal wire hanging cages each measuring 36 cm (L)×25 cm (W)×20 cm (H). Each cage contained two sets of infrared emitter-detector photocells positioned along the long axis 1-cm above the grid floor and 8 cm from the front and back of the cage. Background noise was provided by a white noise generator. Movement within the cages produced photocell interruptions, which were automatically recorded by an IBM-compatible computer.
Animals were habituated to the locomotor activity chambers for 2-3 consecutive days before the experiment. Rats received 5 daily IP injections of cocaine (15 mg/kg) or saline and either the Kyn-3OHase inhibitor Ro-618048 (40 mg/kg ip) or its vehicle and locomotor activity was recorded for 3 hours. Ten days after the last injection of cocaine or saline (day 15), the animals were challenged with 15 mg/kg of cocaine in absence of Ro-618048 and locomotor activity was again monitored for 3 h. […]

[1] = system: MPTP-treated cynomolgus (macaca fascicularis) monkeys; assay: L-DOPA induced dyskinesia model in parkinsonian monkeys; format: in vivo, cynomolgus monkey
Method: The studies were performed in five to six female MPTP-treated cynomolgus (macaca fascicularis) monkeys (weighing 2.9 to 5.0 kg) with a stable parkinsonian syndrome and reproducible dyskinesias to L-Dopa. The animals were handled in accordance with the National Institute of Health Guide for the Care and Use of Laboratory Animals and all procedures were approved by the Institutional Animal Care Committee of Laval University. They were housed separately in observation cages and exposed to a 12 hour light/dark cycle (lights on 6.0 a.m.-6.0 p.m.) in a temperature controlled room, 23±1° C. They were fed once daily in the afternoon with pellets and fruits, and had free access to water.
RO-618048 was administered alone and simultaneously with L-Dopa. In particular: • A) RO-618048 at increasing doses, 10, 30, 100 mg/kg was administered alone on three consecutive days and compared with vehicle administered before and after treatments. • B) RO-618048 at increasing doses, 10, 30, 100 mg/kg was given simultaneously with L-Dopa/benserazide on three consecutive days and compared with L-Dopa, which was also given on three consecutive days. During the interval between the treatments, to maintain priming, the animals received an oral treatment with L-Dopa/benserazide (100/25 mg; Prolopa.). Compounds
RO-618048 at increasing doses, 10, 30, 100 mg/kg was suspended in 0.1% (vol/vol) Tween 80/sterile water and homogenized in a glass homogeniser and mixed overnight until administration, as a homogeneous suspension. The maximum volume of drug suspension administered by oral gavage (p.o) at each increasing dose was 10, 20 and 40 ml respectively. As a control, a suspension of 0.1% (vol/vol) Tween 80/sterile water was administered p.o. (2 ml/kg). L-Dopa methyl ester (Sigma, St. Louis, Mo.); always together with benserazide 50 mg, (Hoffmann-La Roche, Montreal, Quebec), at doses ranging between 25 to 30 mg/kg (based on the threshold concentration for each animal) was dissolved in 1 ml of 0.9% sterile saline and administered s.c. alone or in combination with RO-618048.
The severity of dyskinesias was rated for the face, neck, trunk, arms and legs in the following way: None=0; Mild=1; Moderate=2; Severe=3, based on the assessment of the amplitude, interference with normal motor activity and the frequency of the abnormal movements, according to a scale which we have used in several published studies. The dyskinetic score obtained was the sum of the scores for all body segments for a maximal score of 21 points. The mean dyskinetic score for each animal has been calculated as the average of all the scores obtained for 3 hours or for the total duration of the effect of the drugs.
The mean Parkinsonian scores and also the mean dyskinetic scores obtained for each monkey, during 3 hours or the total duration of the effect of a given drug, were analysed using the nonparametric Friedman's test followed by multiple comparisons based on Friedman rank sums.

lens = assay: In vivo model of cataract (chronic naphtalene treatment)
Method: (§1) We evaluated the effect of a treatment with inhibitors of Kyn-3OHase (Ro-618048) and of 2-(3,4-Dichloro-benzoyl)-cyclopropanecarboxylic acid (UPF-648, 50 mg/kg; ip) in an in vivo (chronic naphtalene treatment) and an in vitro models of cataract (culture lenses exposed to different insults).

Wistar rats = assay: Tail flick test; format: in vivo, rat; settings: 40 mg/kg ip, 90 min after administration; control 3.9±0.4 sec
Method: (§2) We evaluated the analgesic activity of Ro-618048 (40 mg/kg; ip) and of 2-(3,4-Dichloro-benzoyl)-cyclopropanecarboxylic acid (UPF-648, 50 mg/kg; ip) in animal models of inflammatory and neuropathic pain (formalin test in mice) as well as in acute pain test (tail flick in rats).
(§3) Adult male Wistar rats weighing 175-200 g, and Crl:CD-1 mice weighing 22-25 g at testing were used (Harlan-Nossan, Italy).
The tail flick test measures the thermal nociceptive threshold defined as the latency required to elicit a tail response to heat. The test was performed according to the method described by D'Amour and Smith (1941, J. Pharmacol. Exp. Ther. 72:74-79) using an analgesiometer (U. Basile, Italy). Rats were treated ip with the drug (Ro-618048 40 mg/kg) or vehicle and 90 min after, each animal was placed on a platform and the tail was exposed to a focused beam of radiant heat approximately 3 cm from the tip. The beam light intensity was adjusted to produce a reaction latency of 3-5 sec in control rats. The thermal nociceptive threshold was defined as the latency required to elicit a tail response. A 20 sec cut-off was used to prevent tissue damage.
Tail Flick Test. The latency was defined as the interval of time (sec) between the onset of the thermal stimulus and the flick of the tail. Data were evaluated by analysis of variance followed by Dunnett's t-test.

culture lenses = assay: In vitro models of cataract (culture lenses exposed to different insults)
Method: as §1

Crl:CD-1 mice = assay: Mice formalin test; format: in vivo, mouse; settings: 40 mg/kg ip 15 min before formalin, p<0.05
Method: as §2, §3
The formalin test in mouse is a procedure used to model neurogenic inflammation and continuous pain (Shibata et al., 1989, Pain 38: 347-352) as well as some features of post-injury pain in man (Dallel et al., 1995, Pain. 61: 11-16).
According to a modified protocol from Rosland et al., (1990, Pain 42: 235-242) mice were injected subcutaneously (s.c.) with 20 μl of 2.7% solution of formalin into the plantar surface of left hindpaw and placed immediately into clear PVC observation chambers (23×12×13 cm). Pain behavior was quantified by counting the cumulative licking time (sec) of the injected paw. Measurements were taken during the early phase (0-5 min) and late phase (30-40 min) after formalin injection (Tjolsen et al., 1992, Pain 51: 5-17). […]
Mice Formalin test. […] Data were evaluated by analysis of variance followed by Dunnett's t-test.
The cumulative licking time (sec) of the injected paw was recorded during the early phase (0-5 min) and late phase (30-40 min) after formalin injection.

[2] = RO-618048 alone 10, 30, 100 mg/kg p.o., compared with vehicle

## O=C(O)c1cc(=O)c2ccccc2[nH]1 [KYNA, kynurenic acid]
Glutamate release
  glutamate release: strongly inhibits glutamate release

## C[C@]12N[C@H](Cc3ccccc31)c1ccccc12 [MK801]
6-OHDA lesioned rats; MK801 0.1 mg/kg ip, 29th day after 28 days L-DOPA
  decreased rotational response to L-DOPA (duration): similar
MTPP treated monkeys
  L-DOPA induced dyskinesia: reduced L-DOPA induced dyskinesia

## COc1ccc(S(=O)(=O)Nc2nc(-c3cccc([N+](=O)[O-])c3)cs2)cc1OC [Ro-618048]
Male Wistar rats; Ro-618048 40 mg/kg IP with cocaine 15 mg/kg daily for 5 days, vehicle 20% higher
  increase of locomotor response to cocaine, fifth day vs first day: did not show any significant increase
Male Wistar rats; challenge cocaine 15 mg/kg ten days after last injection, without Ro-618048, pretreated 40 mg/kg IP, vehicle 30% higher
  increased locomotor activity response to cocaine challenge vs first day: did not
[1]; 30 mg/kg p.o. simultaneously with L-Dopa/benserazide (25 to 30 mg/kg)
  reduction of dyskinetic response to L-Dopa: about 20%
[1]; 100 mg/kg p.o. simultaneously with L-Dopa/benserazide (25 to 30 mg/kg)
  reduction of dyskinetic response to L-Dopa: about 20%
[1]; [2]
  Parkinsonian score: did not have any effect
  locomotor activity: did not have any effect
[1]; acute RO-618048 with L-Dopa
  effect on improvement of parkinsonism induced by L-Dopa: without any negative effect
6-OHDA lesioned rats; Ro-618048 40 mg/kg ip, acute co-administration on 29th day after 28 days L-DOPA
  decreased rotational response to L-DOPA (duration): reversed
lens
  degree of opacification of the lens: reduce the degree of opacification of the lens
Wistar rats
  tail flick response latency to noxious heat: 6.1 ± 0.4 s
Culture lenses
  degree of opacification of the lens: reduce the degree of opacification of the lens
Crl:CD-1 mice; control 106±4.39 sec
  cumulative licking time, early phase (0-5 min): 75 ± 5.5 s
Crl:CD-1 mice; control 123±12.8 sec
  cumulative licking time, late phase (30-40 min): 68 ± 14.3 s

## O=C(O)C1CC1C(=O)c1ccc(Cl)c(Cl)c1 (stereo not drawn) [UPF-648, 2-(3,4-Dichloro-benzoyl)-cyclopropanecarboxylic acid]
lens
  degree of opacification of the lens: reduce the degree of opacification of the lens
Culture lenses
  degree of opacification of the lens: reduce the degree of opacification of the lens
